ChEMBL document CHEMBL1201862, “PubChem BioAssay data set” (2004)
Calls of active or inactive are those of the source.

Tests used:
[1] = target: T1, Carboxy-terminal domain RNA polymerase II polypeptide A small phosphatase 1 (Homo sapiens, UniProt Q9GZU7); experiment: inhibitors of CTDSP1, concentration-response testing, biochemical assay, absorbance-based, actives from ultra-high-throughput screening (AID 540297); format: functional
T1 sequence (Q9GZU7 whole entry): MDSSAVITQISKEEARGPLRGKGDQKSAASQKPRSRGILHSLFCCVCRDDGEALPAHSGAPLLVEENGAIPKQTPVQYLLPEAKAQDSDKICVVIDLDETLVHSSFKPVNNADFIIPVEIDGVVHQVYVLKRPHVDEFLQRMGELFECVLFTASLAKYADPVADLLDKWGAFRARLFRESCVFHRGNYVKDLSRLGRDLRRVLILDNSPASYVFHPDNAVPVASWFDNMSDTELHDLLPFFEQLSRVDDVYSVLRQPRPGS

[2] = target: T2, High affinity choline transporter 1 (Homo sapiens, UniProt Q9GZV3); experiment: CHT inhibitors, dose response, cell-based, 5-point CRC, membrane potential dye (AID 504840); format: functional
T2 sequence (Q9GZV3 whole entry): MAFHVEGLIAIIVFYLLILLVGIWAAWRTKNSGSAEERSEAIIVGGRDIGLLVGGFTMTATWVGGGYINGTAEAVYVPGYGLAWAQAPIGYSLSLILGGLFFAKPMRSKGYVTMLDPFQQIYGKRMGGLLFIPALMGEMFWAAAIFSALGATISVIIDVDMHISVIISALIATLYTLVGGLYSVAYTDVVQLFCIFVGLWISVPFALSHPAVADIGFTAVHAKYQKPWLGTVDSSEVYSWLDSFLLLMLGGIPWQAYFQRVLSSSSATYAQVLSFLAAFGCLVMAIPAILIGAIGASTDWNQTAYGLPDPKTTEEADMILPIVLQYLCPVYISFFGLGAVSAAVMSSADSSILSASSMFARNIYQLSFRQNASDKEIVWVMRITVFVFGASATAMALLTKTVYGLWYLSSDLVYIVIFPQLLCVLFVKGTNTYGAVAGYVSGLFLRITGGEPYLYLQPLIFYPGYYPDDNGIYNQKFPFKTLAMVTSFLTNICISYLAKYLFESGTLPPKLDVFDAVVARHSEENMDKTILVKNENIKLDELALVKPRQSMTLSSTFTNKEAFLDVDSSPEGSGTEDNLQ

[3] = inhibitors of SNCA 5'UTR-driven reporter translation, confirmation, H4 neuroglioma cells, luminescence (AID 1988); format: functional, cell-based
[4] = tested on: Vero; experiment: cells; format: functional, cell-based; conditions: Chlorocebus sabaeus
[5] = Luminescence Cell-Based Dose Response HTS to Identify Inhibitors of 5'UTR Stem-Loop Driven Prion Protein mRNA Translation in H4 Neuroglioblastoma Cells. [Related pubchem assays: 1827 (Project Summary), 1813 (Primary HTS)]; format: functional
[6] = inhibitors of firefly luciferase expression or activity, dose response, H4 neuroglioma cells, luminescence (AID 1990); format: functional, cell-based
[7] = target: T3, Methionyl-tRNA synthetase, putative (Trypanosoma brucei brucei, UniProt Q38C91); format: functional, Trypanosoma brucei brucei strain 927/4 GUTat10.1
T3 sequence (Q38C91 whole entry): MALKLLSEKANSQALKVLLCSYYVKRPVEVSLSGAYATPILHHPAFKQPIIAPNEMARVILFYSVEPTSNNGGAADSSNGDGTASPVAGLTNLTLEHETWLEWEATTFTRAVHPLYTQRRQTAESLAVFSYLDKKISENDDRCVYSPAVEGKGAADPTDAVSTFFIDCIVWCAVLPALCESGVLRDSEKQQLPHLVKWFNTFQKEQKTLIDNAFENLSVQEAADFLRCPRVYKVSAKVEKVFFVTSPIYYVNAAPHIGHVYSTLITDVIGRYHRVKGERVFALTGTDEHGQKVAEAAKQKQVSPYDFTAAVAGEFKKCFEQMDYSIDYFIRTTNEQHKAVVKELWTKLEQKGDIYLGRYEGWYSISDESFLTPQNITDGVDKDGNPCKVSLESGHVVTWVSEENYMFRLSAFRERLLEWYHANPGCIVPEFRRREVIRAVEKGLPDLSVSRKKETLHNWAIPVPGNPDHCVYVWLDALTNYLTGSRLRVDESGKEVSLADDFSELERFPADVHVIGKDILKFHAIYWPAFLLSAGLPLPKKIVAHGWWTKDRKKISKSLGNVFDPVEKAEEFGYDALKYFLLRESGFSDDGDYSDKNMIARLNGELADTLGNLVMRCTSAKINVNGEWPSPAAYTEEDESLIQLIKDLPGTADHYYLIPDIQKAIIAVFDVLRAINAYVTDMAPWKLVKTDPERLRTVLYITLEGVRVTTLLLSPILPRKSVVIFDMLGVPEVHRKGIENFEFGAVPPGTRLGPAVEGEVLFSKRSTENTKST

[8] = Counterscreen for inhibitors of Trypanosoma brucei methionyl tRNA synthetase (MetRS): Luminescence-based cell-based high throughput dose response assay to identify compounds that are cytotoxic to Jurkat human T lymphocyte cells.; format: functional
[9] = target: T3, Methionyl-tRNA synthetase, putative; format: functional, Trypanosoma brucei brucei strain 927/4 GUTat10.1; remark: listed apart in the source
[10] = target: Melanocortin receptor 4 (Homo sapiens, UniProt P32245); format: functional, cell-based;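 also: Cell-based assay with luminescence read-out, confirmatory dose-response testing for agonist activity of biased ligands at MC4R; human U2OS cells with tagged receptor and beta-arrestin; potency of agonists that increase receptor coupling to beta-arrestin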
Chain of Melanocortin receptor 4 (P32245 whole entry): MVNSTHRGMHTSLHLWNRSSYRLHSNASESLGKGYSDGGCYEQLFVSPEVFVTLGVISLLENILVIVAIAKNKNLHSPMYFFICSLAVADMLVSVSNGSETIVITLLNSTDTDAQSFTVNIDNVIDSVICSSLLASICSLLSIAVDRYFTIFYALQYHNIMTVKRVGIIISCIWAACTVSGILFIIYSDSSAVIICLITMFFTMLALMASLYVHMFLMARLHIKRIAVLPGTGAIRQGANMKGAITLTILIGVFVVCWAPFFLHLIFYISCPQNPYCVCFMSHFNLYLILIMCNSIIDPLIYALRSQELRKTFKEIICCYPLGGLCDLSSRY

Q: Which IC50 [1] does the source give for `COC(=O)C1=COC(OC2OC(CO)C(O)C(O)C2O)C2C1C=CC2(O)CO` (centres undefined) here?
A: Its IC50 is 3.19 µM (active).

Q: With `Cc1cc(C)nc(SCc2cc(=O)c(OC(=O)c3ccco3)co2)n1` as the compound, how does the IC50 [2] read?
A: Its IC50 is 12.3 µM (active).

Q: For `O=C1C2CCCN2C(c2cccs2)N1c1ccc(Cl)cc1` (centres undefined), which EC50 [3] is on record?
A: The EC50 was 49.9 µM (active).

Q: And the IC50 [4]?
A: Its IC50 is 17.1 µM (active).

Q: What about the EC50 [5] of the same compound?
A: Its EC50 is 17 µM (active).

Q: What about the EC50 [6] of the same compound?
A: The EC50 was 45.2 µM (active).

Q: With `O=C(NNC(=O)c1ccc(NC(=O)c2ccccc2)cc1)Nc1ccccc1` as the compound, how does the IC50 [1] read?
A: The IC50 was 7.38 µM (active).

Q: With `Cc1c(NS(=O)(=O)c2cc(C(=O)NCc3cccc(Cl)c3)ccc2Cl)c(=O)n(-c2ccccc2)n1C` as the compound, how does the IC50 [7] read?
A: The IC50 was 94.9 µM (inactive).

Q: And the IC50 [8]?
A: The IC50 was 83.3 µM (inactive).

Q: What about the IC50 [9] of the same compound?
A: Its IC50 is 26.8 µM (inactive).

Q: Which EC50 [10] does the source give for `COc1ccc(-c2cc(NC(C)=O)c3ncc(-c4ccc(F)cc4)n3c2)cc1OC` here?
A: Its EC50 is > 89.2 µM (inactive).

Q: Which IC50 [7] does the source give for `Cc1ccc(-c2c[nH]c(C(O)c3cc(Cl)cc(Cl)c3)n2)cc1` (centres undefined) here?
A: Its IC50 is 15.3 µM (inactive).

Q: What about the IC50 [8] of the same compound?
A: Its IC50 is 74.7 µM (inactive).

Q: And the IC50 [9]?
A: Its IC50 is 6.3 µM (active).
